From ChEMBL document CHEMBL4842383 (J Med Chem, 2021)

How the values were obtained:
[1] = target: T1, Aurora kinase A (Homo sapiens) (UniProt O14965); test: Inhibition of recombinant GST-AURKA (residues Ser123 to Ser401) (unknown origin) expressed in Sf9 insect cells using tetra(-LRRASLG) peptide as substrate at 1 uM incubated for 90 mins by ATP Kinase Glo assay
T1 sequence (whole entry): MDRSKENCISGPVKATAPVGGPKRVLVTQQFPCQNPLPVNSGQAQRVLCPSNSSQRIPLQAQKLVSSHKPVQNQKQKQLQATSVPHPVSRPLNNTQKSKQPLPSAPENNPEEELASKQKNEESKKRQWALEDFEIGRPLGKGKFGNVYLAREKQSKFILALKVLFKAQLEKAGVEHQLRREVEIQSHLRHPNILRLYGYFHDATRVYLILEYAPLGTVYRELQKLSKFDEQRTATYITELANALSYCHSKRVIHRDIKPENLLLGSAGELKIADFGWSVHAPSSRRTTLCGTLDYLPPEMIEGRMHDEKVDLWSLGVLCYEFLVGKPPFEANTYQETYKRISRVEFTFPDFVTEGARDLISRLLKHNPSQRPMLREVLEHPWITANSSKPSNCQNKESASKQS

[2] = target: Macrophage colony-stimulating factor 1 receptor (Homo sapiens, UniProt P07333); test: Inhibition of human recombinant GST-CSF1R (residues L534 to C972) expressed in Sf9 insect cells using poly(Glu,Tyr) as substrate incubated for 20 mins by ATP Kinase Glo assay
[3] = system: BaF3; test: Antiproliferative activity against mouse BaF3 cells transfected with human ETV6-CSF1R assessed as reduction in cell viability measured after 72 hrs by MTS method; conditions: BaF3, 72 h
[4] = system: NFS-60; test: Antiproliferative activity against mouse NFS-60 cells transfected with human ETV6-CSF1R assessed as reduction in cell viability measured after 72 hrs by MTS method; format: functional, cell-based; conditions: NFS-60, 72 h
[5] = target: Aurora kinase B (Homo sapiens, UniProt Q96GD4); test: Inhibition of human recombinant full length GST-AURKB using tetra(-LRRASLG) peptide as substrate at 0.1 uM incubated for 20 mins by ATP Kinase Glo assay; format: biochemical; conditions: Sf9
[6] = target: T2, Aurora kinase A (Homo sapiens, UniProt O14965); test: Inhibition of recombinant GST-AURKA (residues Ser123 to Ser401) (unknown origin) expressed in Sf9 insect cells using tetra(-LRRASLG) peptide as substrate incubated for 90 mins by ATP Kinase Glo assay
T2 sequence (O14965 whole entry): T1 sequence (whole entry)

Chain of Aurora kinase B (Q96GD4 whole entry, the tested form may be a part): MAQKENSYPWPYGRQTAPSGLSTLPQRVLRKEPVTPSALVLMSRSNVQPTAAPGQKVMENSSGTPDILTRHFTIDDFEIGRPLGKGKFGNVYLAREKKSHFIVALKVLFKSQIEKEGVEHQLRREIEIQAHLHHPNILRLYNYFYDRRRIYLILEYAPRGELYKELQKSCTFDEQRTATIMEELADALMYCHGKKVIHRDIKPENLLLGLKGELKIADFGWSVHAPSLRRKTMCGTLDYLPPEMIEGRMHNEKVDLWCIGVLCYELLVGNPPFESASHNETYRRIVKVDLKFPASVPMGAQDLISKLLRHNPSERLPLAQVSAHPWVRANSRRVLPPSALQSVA
Chain of Macrophage colony-stimulating factor 1 receptor (P07333 whole entry, the tested form may be a part): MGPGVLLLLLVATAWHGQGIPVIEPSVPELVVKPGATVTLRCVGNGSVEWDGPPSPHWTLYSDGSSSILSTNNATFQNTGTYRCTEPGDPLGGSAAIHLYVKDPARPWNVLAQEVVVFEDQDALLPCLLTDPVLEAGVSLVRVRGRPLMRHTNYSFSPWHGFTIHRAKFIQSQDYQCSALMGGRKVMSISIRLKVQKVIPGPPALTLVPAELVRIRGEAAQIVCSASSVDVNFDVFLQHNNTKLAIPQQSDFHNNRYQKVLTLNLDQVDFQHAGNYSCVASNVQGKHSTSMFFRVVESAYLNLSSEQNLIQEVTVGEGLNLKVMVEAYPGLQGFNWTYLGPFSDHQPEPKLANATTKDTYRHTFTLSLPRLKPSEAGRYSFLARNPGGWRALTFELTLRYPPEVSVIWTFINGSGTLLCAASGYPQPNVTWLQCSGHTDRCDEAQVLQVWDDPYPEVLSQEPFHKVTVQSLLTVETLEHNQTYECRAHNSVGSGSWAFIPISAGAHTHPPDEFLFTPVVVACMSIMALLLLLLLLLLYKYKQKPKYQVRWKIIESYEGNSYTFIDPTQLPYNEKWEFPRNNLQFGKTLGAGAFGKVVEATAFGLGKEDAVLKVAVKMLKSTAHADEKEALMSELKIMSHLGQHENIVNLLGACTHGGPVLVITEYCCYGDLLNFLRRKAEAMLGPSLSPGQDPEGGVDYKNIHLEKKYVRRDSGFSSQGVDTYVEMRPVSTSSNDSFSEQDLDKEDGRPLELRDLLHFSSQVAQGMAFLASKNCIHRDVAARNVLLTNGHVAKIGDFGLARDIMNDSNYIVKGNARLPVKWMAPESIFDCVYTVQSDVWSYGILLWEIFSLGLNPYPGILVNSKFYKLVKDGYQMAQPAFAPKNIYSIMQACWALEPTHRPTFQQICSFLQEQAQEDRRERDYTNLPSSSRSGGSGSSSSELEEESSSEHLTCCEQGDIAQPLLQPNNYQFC

Row | inhibition [1] | IC50 [2] | EC50 [3] | inhibition [5] | IC50 [6] | Compound | EC50 [4]
1 | 29% | 41 nM | – | – | – | CN(C)c1ccc2ncnc(Oc3ccc(NC(=O)Nc4ccccc4)cc3)c2c1 | –
2 | 70% | 164 nM | 18.4 nM | 50% | – | CN(C)c1ccc2c(Oc3ccc(NC(=O)Nc4ccc(Cl)cc4)cc3)ncnc2c1 | 25 nM
3 | 11% | > 10 nM | – | – | – | O=C(Nc1ccccc1)Nc1ccc(Oc2ncnc3ccc(N4CCCC4)cc23)cc1 | –
4 | 24% | 30 nM | 116 nM | 53% | – | COc1ccccc1NC(=O)Nc1ccc(Oc2ncnc3cc(N(C)C)ccc23)cc1 | 144 nM
5 | 6% | 1.41 nM | 158 nM | – | – | CC(NC(=O)Nc1ccc(Oc2ncnc3cc(N(C)C)ccc23)cc1)c1nccs1 (stereo not drawn) | –
6 | 33% | 243 nM | – | 27% | – | CN(C)c1ccc2c(Nc3ccc(NC(=O)Nc4ccccc4)cc3)ncnc2c1 | –
7 | 43% | 15.4 nM | 66 nM | 79% | – | CN(C)c1ccc2c(Oc3ccc(NC(=O)Nc4ccccc4Cl)cc3)ncnc2c1 | 145 nM
8 | 36% | 76 nM | – | 48% | – | COc1ccc2c(Oc3ccc(NC(=O)Nc4ccccc4)cc3)ncnc2c1 | –
9 | 3% | 18.6 nM | 108 nM | 34% | – | CN(C)c1ccc2c(Oc3ccc(NC(=O)NCc4c(F)c(F)c(F)c(F)c4F)cc3)ncnc2c1 | –
10 | 7% | 16.3 nM | 85 nM | 7% | – | CN(C)c1ccc2c(Oc3ccc(NC(=O)NCc4ccccc4)cc3)ncnc2c1 | 58 nM
11 | 71% | 10.5 nM | 20 nM | 82% | – | CN(C)c1ccc2c(Oc3ccc(NC(=O)Nc4cccc(Cl)c4)cc3)ncnc2c1 | 55 nM
12 | 13% | 753 nM | – | 27% | – | O=C(Nc1ccccc1)Nc1ccc(Oc2ncnc3cc(F)ccc23)cc1 | –
13 | 43% | 63 nM | – | 43% | – | O=C(Nc1ccccc1)Nc1ccc(Oc2ncnc3cc(N4CCCC4)ccc23)cc1 | –
14 | 56% | 124 nM | – | 24% | – | COc1ccc2c(Nc3ccc(NC(=O)Nc4ccccc4)cc3)ncnc2c1 | –
15 | 4% | 83 nM | 133 nM | – | – | COc1ccc(CNC(=O)Nc2ccc(Oc3ncnc4cc(N(C)C)ccc34)cc2)cc1OC | –
16 | 1% | 79 nM | 87 nM | 15% | – | CN(C)c1ccc2c(Oc3ccc(NC(=O)NCc4cccnc4)cc3)ncnc2c1 | 152 nM
17 | 2% | 24 nM | 318 nM | 19% | – | CN(C)c1ccc2c(Oc3ccc(NC(=O)NCc4nccs4)cc3)ncnc2c1 | 202 nM
18 | – | 19 nM | – | – | – | CN(C)CCCOc1ccc2c(NCCc3cnc(NC(=O)Nc4cccc(Cl)c4)s3)ncnc2c1 | –
19 | 53% | 11.1 nM | 43 nM | 44% | – | COc1ccc(NC(=O)Nc2ccc(Oc3ncnc4cc(N(C)C)ccc34)cc2)cc1Cl | 53 nM

Continued, compound first:

Row | Compound | inhibition [1] | IC50 [2] | EC50 [3] | inhibition [5] | IC50 [6] | EC50 [4]
20 | CN(C)c1ccc2c(Oc3ccc(NC(=O)Nc4cccc(C(F)(F)F)c4)cc3)ncnc2c1 | 35% | 64 nM | 45 nM | 60% | – | –
21 | CN(C)c1ccc2c(Oc3ccc(NC(=O)NCc4ccc(C(F)(F)F)cc4)cc3)ncnc2c1 | 16% | 91 nM | 152 nM | 25% | – | 97 nM
22 | COc1ccc(Cl)cc1NC(=O)Nc1ccc(Oc2ncnc3cc(N(C)C)ccc23)cc1 | 70% | 36 nM | 86 nM | 41% | – | 141 nM
23 | COc1cccc(NC(=O)Nc2ccc(Oc3ncnc4cc(N(C)C)ccc34)cc2)c1 | 46% | 11.6 nM | 65 nM | 79% | – | 108 nM
24 | CN(C)c1ccc2c(Oc3ccc(NC(=O)Nc4ccccc4)cc3)ncnc2c1 | 40% | 21 nM | 66 nM | 61% | – | 92 nM
25 | CN(C)c1ccc2c(Oc3ccc(NC(=O)NCc4ccc(S(N)(=O)=O)cc4)cc3)ncnc2c1 | 2% | 16.3 nM | 662 nM | 62% | – | 1090 nM
26 | CN(C)c1ccc2c(Oc3ccc(NC(=O)NCc4ccc(C#N)cc4)cc3)ncnc2c1 | 5% | 50 nM | 14.1 nM | – | – | 23 nM
27 | COc1ccc2c(NCCc3cnc(NC(=O)Nc4cccc(Cl)c4)s3)ncnc2c1 | – | 112 nM | – | 89% | 9 nM | –
28 | O=C(Nc1cccc(Cl)c1)Nc1ncc(CCNc2ncnc3cc(F)ccc23)s1 | – | > 10 nM | – | 83% | 9 nM | –
29 | CN(C)c1ccc2c(Oc3ccc(NC(=O)Nc4ccc(C(F)(F)F)cc4)cc3)ncnc2c1 | 46% | 64 nM | 49 nM | 37% | – | –
30 | COc1cc(Oc2ccnc3cc(OC)c(OC)cc23)ccc1NC(=O)NC(C)c1nccs1 (stereo not drawn) | 42% | – | 76 nM | 47% | – | 77 nM
31 | CN(C)c1ccc2c(Oc3ccc(NC(=O)NCCc4ccccc4)cc3)ncnc2c1 | 35% | 15.4 nM | 82 nM | 35% | – | 162 nM
32 | CNc1ccc2c(Oc3ccc(NC(=O)Nc4ccccc4)cc3)ncnc2c1 | 57% | 44 nM | – | 76% | – | –
33 | Nc1ccc2c(Oc3ccc(NC(=O)Nc4ccccc4)cc3)ncnc2c1 | 47% | 58 nM | – | 74% | – | –
34 | COc1cc2ncnc(Oc3ccc(NC(=O)Nc4ccccc4)cc3)c2cc1OC | 46% | 30 nM | – | – | – | –
35 | CN(C)c1ccc2c(Oc3ccc(NC(=O)NCc4ccn(C)n4)cc3)ncnc2c1 | 58% | 204 nM | 167 nM | – | – | –
